In the assay the test system is M. tuberculosis H37Rv growth inhibition. The assay can be described thus: Mycobacterium tuberculosis H37Rv growth inhibition, cell based, confirmatory dose response (AID 1949).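 Note: bacteria grown 7 days with compound before Alamar blue readout.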

Values after ≈ are worked out from the molar mass of the structure shown. Inconclusive results are not listed. Active and inactive are the calls of the source. The rule behind the calls is not given here. Where only a bound is given, the exact number is not on record here.

A word on the IC50: it is the concentration at which inhibition is half-maximal. As for `COc1ccc(NC(=S)Nc2cccc(C(F)(F)F)c2)c([N+](=O)[O-])c1`, the IC50 was 23.3 µg/mL (≈ 62.9 µM).
As for `Cc1ccc(NC(=O)c2cc3cc(Cl)cc(Cl)c3oc2=O)c(C)c1`, the figure is 1.1 µg/mL (≈ 3.04 µM); as for `CC(C)(C)c1cc(Cl)c(O)c(NC(=S)NC(=O)c2cncc(Br)c2)c1`, under 0.1 µg/mL.
As for `CCCCN1C(=O)C(=O)c2cc(Br)ccc21`, the figure is 9.17 µg/mL (≈ 32.5 µM); as for `Cc1cccc(OCc2nnc(SCC(=O)NCCc3ccccc3)o2)c1`, 0.46 µg/mL (≈ 1.2 µM); as for `OC(COc1ccc2ccccc2c1)CN1CCCN(CC(O)COc2ccc3ccccc3c2)CC1` (stereo not given), 0.73 µg/mL (≈ 1.46 µM).
As for `COc1ccc2nc(/C(C#N)=C\c3cccn3-c3ccccc3F)[nH]c2c1`, the figure is 4.8 µg/mL (≈ 13.4 µM); as for `Cc1ccc(NC(=O)COc2ccc(F)cc2)cc1`, > 50 µg/mL (inactive); as for `COc1ccc(NC(=O)CC23CC4CC(CC(C4)C2)C3)cc1[N+](=O)[O-]`, 3.05 µg/mL (≈ 8.86 µM).
Take `c1ccc(CNc2cc(-n3cccn3)nc(-c3ccccc3)n2)cc1`: the IC50 is > 50 µg/mL (inactive).
For `CCC(C)c1ccccc1OCC(=O)Nc1ccc(Cl)cc1` (stereo not given) the value was 4.68 µg/mL (≈ 14.7 µM).
Consider `O=[N+]([O-])c1ccccc1C1Nc2ccc(Cl)cc2C2C=CCC21` (stereo not given), for which the IC50 was 10.5 µg/mL (≈ 32.3 µM).
For `Clc1ccc(SCCCn2ccnc2)cc1` the value was 2.36 µg/mL (≈ 9.34 µM); for `CCN1CCN(c2ccc([N+](=O)[O-])c(-n3nc(-c4ccc(Cl)cc4)c4ccccc4c3=O)c2)CC1`, 5.6 µg/mL (≈ 11.4 µM).
For `COc1ccc(CCNC(=S)N2CCN(C/C=C/c3ccccc3)CC2)cc1OC` the value was 1.73 µg/mL (≈ 4.06 µM); for `c1cc2[nH]onc2c2c3c(nc12)CCCC3`, 8.28 µg/mL (≈ 38.8 µM).
For `CCCc1ccc(OC(=O)c2cc3ccccc3oc2=O)cc1` the value was 22.4 µg/mL (≈ 72.5 µM).
Consider `COc1ccc(Cc2nc3sc4c(c3c(=O)n2N)CCCC4)cc1`, for which the IC50 was > 50 µg/mL (inactive).
For `Cc1ccc(C(=O)N2CCN(c3ccc(NC(=O)COc4c(C)cc(C)cc4Br)cc3)CC2)cc1` the value was 1.34 µg/mL (≈ 2.5 µM); for `O=C(NC12CC3CC(CC(C3)C1)C2)N1CCN(c2cccc(Cl)c2)CC1`, 8.14 µg/mL (≈ 21.8 µM).
`CN(C)CCCNc1nn2c(=O)c3c(-c4ccc(Cl)cc4)csc3nc2c2ccccc12`: the IC50 was 35.1 µg/mL (≈ 75.5 µM).
As for `O=C(Oc1cccc2cccnc12)c1ccccc1F`, the figure is 2.7 µg/mL (≈ 10.1 µM).
For `O=C1C(Cl)=C(N2CCOCC2)C(=O)N1c1cccc(Cl)c1Cl` the value was 20.9 µg/mL (≈ 57.7 µM); for `O=C(COc1ccc(Cl)cc1)NCCC12CC3CC(CC(C3)C1)C2`, 43.5 µg/mL (≈ 125 µM); for `CCOC(=O)c1ccc(NC(=O)CSc2nnc(-c3ccco3)c(-c3ccco3)n2)cc1`, 19.7 µg/mL (≈ 43.6 µM).
For `Cc1ccccc1N1CCN(CC(O)COc2ccc(C(=O)c3ccccc3)cc2)CC1` (stereo not given) the value was 2.81 µg/mL (≈ 6.53 µM); for `Cc1cnc(NC(=O)CSc2ccc(Cl)cc2)s1`, 1.67 µg/mL (≈ 5.59 µM); for `CCOC(=O)Cn1cc(/C=C(/C#N)c2nc3ccc(OC)cc3[nH]2)c2ccccc21`, 0.74 µg/mL (≈ 1.85 µM).
On to `c1ccc(CCc2ccccc2-c2nc(-c3ccncc3)no2)cc1`, for which the IC50 was 8.77 µg/mL (≈ 26.8 µM).
`Cc1ccc(C(=O)Nc2ccc(N3CCCC3)c(Cl)c2)c(C)c1`: the concentration for half-maximal inhibition (IC50) was 6.72 µg/mL (≈ 20.4 µM).
As for `C(=NN1CCN(C2c3ccccc3-c3ccccc32)CC1)c1ccncc1`, the figure is 11.2 µg/mL (≈ 31.5 µM).
As for `CCCCc1ccc(NC(=S)NC(=O)c2ccc(OCC)c(Cl)c2)cc1`, the figure is 0.34 µg/mL (≈ 0.87 µM); as for `CC(=O)NC(=S)NNC(=O)c1ccc(C)c(Br)c1`, 1.77 µg/mL (≈ 5.36 µM).
For `O=C(Nc1ccc2c(c1)OCCO2)C(Cl)Cl` the value was 6.65 µg/mL (≈ 25.4 µM); for `CCC(C)NC(=O)c1ccc(NC(=O)C2(c3ccccc3)CCCC2)cc1` (stereo not given), 1.08 µg/mL (≈ 2.96 µM); for `c1ccc(CNCCCOc2cccc3ccccc23)cc1`, 4.89 µg/mL (≈ 16.8 µM).
`Cc1c(C(=O)NC(=S)Nc2ccc(Oc3ccc(Cl)cc3)cc2)cccc1[N+](=O)[O-]`: the 50% inhibitory concentration (IC50) was 1.49 µg/mL (≈ 3.37 µM).
For `N#Cc1cc(Oc2ccc(OCc3ccccc3)cc2)c([N+](=O)[O-])cc1C#N` the value was under 0.1 µg/mL; for `COc1ccc(CCNc2nc(N3CCCC3)nc(N3CCCC3)n2)cc1OC`, 5.35 µg/mL (≈ 13.4 µM).
For `C=CCc1cc(Cl)ccc1OCCCCn1ccnc1` the value was 2.09 µg/mL (≈ 7.19 µM); for `Cc1nc(Nc2nc3c(c(=O)[nH]2)CCCC3)nc2c(C)cccc12`, 28.1 µg/mL (≈ 87.4 µM); for `N#Cc1ccc(NC(=O)CSc2ccc(Br)cc2)cc1`, 3.04 µg/mL (≈ 8.75 µM).
As for `O=C(Oc1ccc(Cl)cc1)c1ccc(S(=O)(=O)c2ccc(Cl)cc2)cc1`, the figure is 1.02 µg/mL (≈ 2.5 µM); as for `Cc1ccc(SCC(=O)Nc2cccc(C)c2)cc1`, 10.9 µg/mL (≈ 40.2 µM).
In the case of `c1ccc(OCCCCn2cnc3ccccc32)cc1`, the IC50 was 16 µg/mL (≈ 60.2 µM).
Regarding `Cc1cc(C)c2[nH]c3ccccc3c2n1`, the concentration for half-maximal inhibition (IC50) is 1.3 µg/mL (≈ 6.62 µM).
For `c1ccc(CCN(Cc2ccccc2)C2CCN(Cc3c[nH]c4ccccc34)CC2)cc1` the value was 2.91 µg/mL (≈ 6.87 µM).
For `Fc1ccccc1-c1nc(-c2cnc3ccccc3c2)c(-c2cccs2)[nH]1`, the IC50 is 5.05 µg/mL (≈ 13.6 µM).
In the case of `Cc1nn2c3ccc(N)cc3nc2c2ccccc12`, the IC50 was 17.5 µg/mL (≈ 70.6 µM).
On to `O=C(Oc1cccc2cccnc12)C(Cc1ccccc1)N1C(=O)C2C3CCC(C3)C2C1=O` (stereo not given), for which the IC50 was 2.76 µg/mL (≈ 6.27 µM).
For `Cc1ccc(-n2sc3ccccc3c2=O)cc1` the value was under 0.1 µg/mL; for `COC(=O)c1sccc1NC(=O)c1c(F)c(F)c(F)c(F)c1F`, 0.21 µg/mL (≈ 0.598 µM).
For `CC(=O)c1ccc(NC(=O)CSc2ccc(F)cc2)cc1` the value was 7.95 µg/mL (≈ 26.2 µM).
As for `Cc1csc(NC(=O)CSc2ccc(Br)cc2)n1`, the figure is 5.62 µg/mL (≈ 16.4 µM); as for `CCOC(=O)c1cccc(NC(=O)C(Cl)Cl)c1`, 3.07 µg/mL (≈ 11.1 µM); as for `CCC(C)Oc1c(Cl)cc(/C=C\[N+](=O)[O-])cc1OC` (stereo not given), > 50 µg/mL (inactive).
`CCCc1cc(C(N)=O)c(NC(=O)c2ccoc2C)s1`: the IC50 was 4.4 µg/mL (≈ 15 µM).
As for `Fc1ccc(-c2nn(-c3ccccc3)cc2CNCc2ccccc2)cc1`, the figure is 5.86 µg/mL (≈ 16.4 µM); as for `CCN(CC)CCSc1nc2sc3c(c2c(=O)n1-c1ccc(OC)cc1)CCCC3`, > 50 µg/mL (inactive); as for `COC(=O)COc1ccc(/C=C(/C#N)c2nc3ccccc3[nH]2)cc1`, 0.67 µg/mL (≈ 2.01 µM).
For `Cc1cc(C)c(N2CCN(S(=O)(=O)c3ccc(Cl)cc3)CC2)c(C)c1` the value was > 50 µg/mL (inactive); for `Cc1cccc(NC(=O)Nc2ccc(C(F)(F)F)cc2)c1`, 8.07 µg/mL (≈ 27.4 µM).
As for `Cc1ccc(Cl)cc1N1CCN(C(=O)C2CCN(C(=O)c3ccc(C(C)(C)C)cc3)CC2)CC1`, the figure is 3.38 µg/mL (≈ 7.01 µM); as for `CCN(CC)c1ccc(NC(=S)NCCc2ccc(OC)c(OC)c2)cc1`, 1.68 µg/mL (≈ 4.33 µM).
`CCc1cc(I)ccc1NC(=O)c1ccc([N+](=O)[O-])o1`: the concentration for half-maximal inhibition (IC50) is 1.61 µg/mL (≈ 4.17 µM).
As for `CCOC(=O)CSc1nc(C#N)c(SCC(=O)OCC)s1`, the figure is 2.29 µg/mL (≈ 6.61 µM); as for `C=CCN(CC=C)C(=S)NC(=O)c1ccc(OC)cc1`, > 50 µg/mL (inactive); as for `Cc1cc(OCCn2ccnc2)cc(C(C)C)c1`, 7.45 µg/mL (≈ 30.5 µM).
As for `CC(=O)Oc1ccc2nc(-c3ccc(C(C)(C)C)cc3)oc(=O)c2c1`, the figure is > 50 µg/mL (inactive); as for `CCOC(=O)c1cc(-c2ccc(/C=C/[N+](=O)[O-])o2)ccc1Cl`, > 50 µg/mL (inactive).
For `C=CCOc1c(Cl)cc(/C=C/[N+](=O)[O-])cc1OCC`, the IC50 was 23.4 µg/mL (≈ 82.5 µM).
With `COC(=O)c1ccc(NC(=O)COc2ccc(-c3ccc(C#N)cc3)cc2)cc1`, the IC50 is 0.41 µg/mL (≈ 1.06 µM).
For `O=C(c1ccc(Cl)cc1)c1ccc(OCC(O)CN2CCN(Cc3ccccc3)CC2)cc1` (stereo not given) the value was 2.75 µg/mL (≈ 5.91 µM); for `CCOC(=O)c1ccc(NC(=S)Nc2cccc([N+](=O)[O-])c2)cc1`, 0.23 µg/mL (≈ 0.666 µM); for `Cc1nc(SCC(=O)N2CCC(C)CC2)c2c3c(sc2n1)CCC3`, > 50 µg/mL (inactive).
For `CCCOc1ccccc1-c1nc(SCC(=O)OCC)n[nH]1` the value was 1.86 µg/mL (≈ 5.79 µM).
For `CCC(C)NCCCCOc1ccc(Cl)cc1C(C)(C)C` (stereo not given) the value was 4.49 µg/mL (≈ 14.4 µM); for `Cc1cc(C)nc(Nc2ccc(N3CCCC3)cc2)n1`, 9.69 µg/mL (≈ 36.1 µM); for `CCOc1ccc(NC(=O)c2c(NC(=O)CNCCN3CCOCC3)sc3c2CCC3)cc1`, 1.33 µg/mL (≈ 2.81 µM).
For `O=C1N(Cc2ccccc2Cl)c2ccc(Br)cc2C1(O)c1c[nH]c2ccccc12` (stereo not given), the 50% inhibitory concentration (IC50) is 1.68 µg/mL (≈ 3.59 µM).
For `Cc1nn(-c2ccc([N+](=O)[O-])cc2)c(C)c1N1C(=O)c2cccc3cc(Br)cc(c23)C1=O` the value was 0.39 µg/mL (≈ 0.794 µM); for `Cc1cc(Br)cc2c1N(CCCOc1ccccc1)C(=O)C2=O`, 9.2 µg/mL (≈ 24.6 µM).
For `OC(COc1ccccc1Br)CN1CCN(C(c2ccccc2)c2ccccc2)CC1` (stereo not given) the value was 5.33 µg/mL (≈ 11.1 µM).
With `O=S1(=O)C=C(Sc2nc3ccccc3s2)c2ccccc21`, the IC50 is under 0.1 µg/mL.
As for `Cc1ccc(OCC(=O)c2ccccc2)cc1C`, the figure is 4.92 µg/mL (≈ 20.5 µM).
As to `CCc1nc2ccccc2n1CC(O)COc1ccc(I)cc1` (stereo not given), the IC50 was 1.97 µg/mL (≈ 4.67 µM).
In the case of `c1ccc(CN2CCN(CCCOc3cccc4ccccc34)CC2)cc1`, the IC50 was 4.68 µg/mL (≈ 13 µM).
For `CCOC(=O)COc1ccc(S(=O)(=O)Nc2ccc(C)c(C)c2)cc1` the value was 1.03 µg/mL (≈ 2.83 µM); for `CC1=CC(C)(C)N2C(=O)C3(Nc4ccccc4S3)c3cc(C)cc1c32` (stereo not given), 16.9 µg/mL (≈ 48.6 µM).
Consider `COc1cc(Br)cc2cc(C(=O)Nc3ccccc3C(F)(F)F)c(=O)oc12`, for which the IC50 is > 50 µg/mL (inactive).
For `O=C(CN1CCN(CCN2C(=O)c3cccc4cccc(c34)C2=O)CC1)c1ccc(Cl)cc1` the value was 6.6 µg/mL (≈ 14.3 µM); for `CCCc1nc2ccccc2n1CC(O)COc1ccc(Br)cc1` (stereo not given), 4.08 µg/mL (≈ 10.5 µM); for `CCc1ccc(Oc2coc3cc(OC(C)C(=O)OC)ccc3c2=O)cc1` (stereo not given), 3.05 µg/mL (≈ 8.28 µM).
For `O=C(Nc1ccc2oc(-c3cccc4ccccc34)nc2c1)c1cncc(Br)c1` the value was 2.72 µg/mL (≈ 6.12 µM); for `Clc1ccccc1COc1ccc2ccccc2c1CNCc1cccnc1`, 8.75 µg/mL (≈ 22.5 µM); for `CCOc1ccc(NC(=O)CSc2nnc(-c3ccccc3Cl)o2)cc1`, 3.35 µg/mL (≈ 8.59 µM).
For `Cc1ccccc1N1C(=O)NC(=O)/C(=C\c2ccc([N+](=O)[O-])s2)C1=O` the value was 6.22 µg/mL (≈ 17.4 µM).
Consider `COC(=O)C(Oc1ccc2c(c1)oc(=O)c1cc(OC)ccc12)c1ccccc1` (stereo not given), for which the IC50 was 1.32 µg/mL (≈ 3.38 µM).
For `COC(=O)c1ccc2nc(C)cc(Nc3ccc(OCc4ccccc4)cc3)c2c1`, the IC50 is 1.2 µg/mL (≈ 3.01 µM).
For `Cc1ccc(C2=CC(c3cccc([N+](=O)[O-])c3)n3nnnc3N2)cc1C` (stereo not given) the value was 12.2 µg/mL (≈ 35 µM).
